In data set [1] the test system is Compound 48/80-induced scratching. The experiment in a line: mouse scratch model: antagonism of Compound 48/80-induced scratching (anti-pruritic activity). It is filed as in vivo, male Swiss albino mice. Particulars: sc, 0.5 h, Compound 48/80 challenge, 30 min observation. As for the experimental part: Testing was performed in a mouse scratch model under blind conditions.
Groups of 8-10 male Swiss albino mice (Hilltop Lab Animals, Inc., Scottsdale, Pa.), weighing […], were used in the testing. They were housed under controlled temperature of 23°-25° C. Food and water were freely available. Before the experiments, the mice were weighted, put into individual boxes and allowed to acclimate for 30 min.
Vehicle used to dissolve the test compounds: 20% w/w cremafor EL.
The compounds to be tested for anti-pruritic activity were dissolved in the vehicle of 20% w/w cremafor EL.
100 μl of the vehicle (3-5 doses, n=8-10) was injected s.c. into the back of the neck of mice 20 min. before challenging them with 100 μl of Compound 48/80 (2 mg/ml; […]) injected s.c. into the back of the neck.
To each mouse of a group of 8-10 mice previously subjected to the standard challenge various doses of the compounds, to be tested for anti-pruritic activity, were administered s.c. into the back of the neck.
For each group of 8-10 mice, the mean values for scratching were no to relative % antagonism of scratching and then plotted vs. dose of test compounds. Interval estimates of mean A50 were determined by nonlinear regression analysis (Kaleida Graph) and mean % inhibition of scratching was calculated.

For data set [2] the following is noted: in vivo; hydrochloride; cited from earlier work.
The conditions of data set [3]: in vivo, iv; cited from earlier work.

Structures can show the parent of a compound that is named as a salt.

In data set [1], `O=C(O)C1(c2ccccc2)CCN(CCC(c2ccccc2)(c2ccccc2)c2ccccn2)CC1` [(1), 1-[3,3-diphenyl-3-(2-pyridyl)propyl]-4-phenyl-4-piperidinecarboxylic acid hydrochloride] yielded an inhibition at 2.5 mg/kg of 32% and an inhibition at 5 mg/kg of 65%. Moreover, the inhibition at 10 mg/kg in data set [1] (10.0 mg/kg) worked out at 83%.

In turn, `OC1(Cc2ccc(Cl)cc2)CCN(CCC(c2ccccc2)(c2ccccc2)c2ccccc2)CC1` [(2), 1-(3,3,3-triphenylpropyl)-4-hydroxy-4-p-chlorobenzylpiperidine] had an inhibition at 1 mg/kg in data set [1] (1.0 mg/kg) of 35%. Besides, in data set [1], the inhibition at 2.5 mg/kg turned out to be 68% and testing at 5 mg/kg gave an inhibition of 94%.

As to `CN(C)C(=O)C(CCN1CCC(O)(c2ccc(Cl)cc2)CC1)(c1ccccc1)c1ccccc1` [Loperamide HCl, 4-(p-chlorophenyl)-4-hydroxy-N-N-dimethyl-α,α-diphenyl-1-piperidinebutyramide hydrochloride], in data set [2], the CNS effects result was “completely free of the undesirable CNS effects”.

Regarding `CN1CC[C@]23c4c5ccc(O)c4O[C@H]2[C@@H](O)C=C[C@H]3[C@H]1C5` [morphine], in data set [3], the “general itching, incidence” value is on record as “about 1 % of patients”.

For orientation: inhibition means the relative decrease from the control value, in per cent. A lower inhibition goes with a response near the control.

The values above are taken from US5888494A, “Film-forming compositions of antihyperalgesic opiates and method of treating hyperalgesic and pruritic conditions therewith” (priority 1997, dated 1999).
